In patent US20150133373A1, “TRANSMUCOSAL DELIVERY OF ENGINEERED POLYPEPTIDES” (priority 2012, published 2015):
Like-named read-outs stand apart in the source and are kept apart here. No end group written: not given here. *: point of attachment. maleimido‑mono‑amide‑DOTA = O=C(O)CN1CCN(CC(=O)O)CCN(CC(=O)NCCN2C(=O)CC(*)C2=O)CCN(CC(=O)O)CC1

Tests used:
[1] = Stability in a pancreatin enzyme mixture; assay type: in vitro ADME; conditions: isolated enzyme pancreatin
[2] = system: IgG molecules present in normal human sera; assay: Serum response analysis (ELISA, IgG binding to albumin binding polypeptides)
Protocol: Each serum sample was tested as a singlet.

[3] = system: CD3+CD4+ T cells (PBMC from 52 human Caucasian individuals)
Pancreatin = assay: Stability in a pancreatin enzyme mixture; assay type: in vitro ADME; conditions: pH 6.8
NIH/Swiss mice = assay: OGTT DOA (oral glucose tolerance test for duration of action) in NIH/Swiss mice; assay type: in vivo, mouse; conditions: for activity in OGTT DOA when dosed 24 hours before the glucose gavage (in words): dosed at t-24 hours; for % Glucose Lowering Compared to Vehicle: Table 6, 25 nmol/kg IP at t=−1 day, blood glucose at 30 min after glucose gavage ([…]), 4 hr fasted NIH/Swiss female mice
[4] = Melting temperature (Tm) by circular dichroism; assay type: physicochemical; conditions: CD at 221 nm, 20° to 90° C., 1×PBS, 0.4-0.5 mg/ml
Protocol: Purified albumin binding polypeptide variants were diluted in 1×PBS, to final concentrations between 0.4 and 0.5 mg/ml. Circular dichroism (CD) analysis was performed on a Jasco J-810 spectropolarimeter in a cell with an optical path-length of 1 mm. In the variable temperature measurements, the […] was measured at 221 nm from 20° to 90° C., with a temperature slope of 5° C./min.
The melting temperatures (Tm) of the different albumin binding polypeptide variants were calculated by determining the midpoint of the transition in the CD vs. temperature plot.

C57BL6 female mice = assay: Kidney vacuolization (cytoplasmic vacuolation of renal cortical tubular epithelial cells); assay type: in vivo, mouse; conditions: Example 32; sc injection on days 0-6, kidneys on day 7
Protocol: (§1) With some drugs, such as some pegylated proteins, undesirable vacuoles can form in cytoplasm of epithelial cells lining the proximal convoluted tubules, which is an undesirable toxicity measure. […] C57BL6 female mice (n=2 cages, 3 mice/cage) were weighed daily 3 hours prior to lights out Immediately after weighing, on days 0-6 mice were injected subcutaneously with test compound. Mice were sacrificed on day 7 and kidneys submitted for histopathology. […] A positive control compound known to cause vacuole formation was scored as 3. The ABD polypeptide itself scored 0.
as §1, with “3.” for “3. The ABD polypeptide itself scored 0.”

GLP-1 receptor = target: T1, GLP-1 receptor (Rattus norvegicus, UniProt P32301); assay: GLP-1 receptor functional activity (cAMP induction, HTRF cell-based assay, 6-23 (clone 6) cells)
T1 construct: cells that endogenously express GLP-1R; host or cells: rat thyroid carcinoma 6-23 (clone 6) cells
T1 sequence (P32301 22-463): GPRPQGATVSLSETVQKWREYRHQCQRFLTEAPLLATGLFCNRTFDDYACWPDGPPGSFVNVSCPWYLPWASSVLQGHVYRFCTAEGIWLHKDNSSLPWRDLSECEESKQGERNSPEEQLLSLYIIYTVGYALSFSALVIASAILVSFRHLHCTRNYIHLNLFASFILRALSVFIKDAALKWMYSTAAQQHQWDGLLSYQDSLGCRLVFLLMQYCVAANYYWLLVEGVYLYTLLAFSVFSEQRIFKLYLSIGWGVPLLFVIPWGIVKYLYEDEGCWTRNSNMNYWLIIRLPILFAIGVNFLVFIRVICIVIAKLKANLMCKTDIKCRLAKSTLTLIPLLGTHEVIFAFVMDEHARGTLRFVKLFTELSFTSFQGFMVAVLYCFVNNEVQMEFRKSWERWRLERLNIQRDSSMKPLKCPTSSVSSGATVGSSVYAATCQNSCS

Work on `CC[C@H](C)[C@H](NC(=O)[C@H](Cc1ccccc1)NC(=O)[C@H](CCC(=O)O)NC(=O)[C@H](CCCCN)NC(=O)[C@H](C)NC(=O)[C@H](C)NC(=O)[C@H](CCC(N)=O)NC(=O)CNC(=O)[C@H](CCC(=O)O)NC(=O)[C@H](CC(C)C)NC(=O)[C@H](Cc1ccc(O)cc1)NC(=O)[C@H](CO)NC(=O)[C@H](CO)NC(=O)[C@@H](NC(=O)[C@H](CC(=O)O)NC(=O)[C@H](CO)NC(=O)[C@@H](NC(=O)[C@H](Cc1ccccc1)NC(=O)[C@@H](NC(=O)CNC(=O)[C@H](CCC(=O)O)NC(=O)[C@H](C)NC(=O)[C@@H](N)Cc1c[nH]cn1)[C@@H](C)O)[C@@H](C)O)C(C)C)C(=O)N[C@@H](C)C(=O)N[C@@H](Cc1c[nH]c2ccccc12)C(=O)N[C@@H](CC(C)C)C(=O)N[C@H](C(=O)N[C@@H](CCCCN)C(=O)NCC(=O)N[C@@H](CCCNC(=N)N)C(N)=O)C(C)C` [GLP-1 (7-36) (Human)] yielded a remaining at 0.5 h, 30 micromolar ([1]; pancreatin enzyme mixture, 50 mM phosphate buffer pH 6.8, 37° C., 30 minutes, read-out: Percent Remaining at 30 minutes) of 39% and a remaining at 1 h, 30 micromolar ([1]; pancreatin enzyme mixture, 50 mM phosphate buffer pH 6.8, 37° C., 60 minutes, read-out: Percent Remaining at 60 minutes) of 24%.

For `CC[C@H](C)[C@H](NC(=O)[C@H](C)NC(=O)[C@H](CC(=O)O)NC(=O)[C@H](CCCCN)NC(=O)[C@H](CC(C)C)NC(=O)[C@H](C)NC(=O)[C@H](CCC(=O)O)NC(=O)[C@@H](NC(=O)CNC(=O)[C@H](CCC(=O)O)NC(=O)[C@@H](NC(=O)[C@@H](NC(=O)[C@H](CCCCN)NC(=O)[C@H](C)NC(=O)[C@H](CCCCN)NC(=O)[C@H](CC(=O)O)NC(=O)[C@@H](NC(=O)[C@H](CC(C)C)NC(=O)[C@H](CCCNC(=N)N)NC(=O)[C@H](CCCCN)NC(=O)[C@H](Cc1ccc(O)cc1)NC(=O)[C@H](Cc1ccccc1)NC(=O)[C@H](CC(=O)O)NC(=O)[C@H](CO)NC(=O)[C@@H](NC(=O)CNC(=O)[C@H](Cc1ccc(O)cc1)NC(=O)[C@H](CSC1CC(=O)N(CCNC(=O)CN2CCN(CC(=O)O)CCN(CC(=O)O)CCN(CC(=O)O)CC2)C1=O)NC(=O)[C@H](CC(=O)O)NC(=O)[C@H](CC(C)C)NC(=O)[C@H](CCC(=O)O)NC(=O)[C@H](C)NC(=O)[C@H](CC(N)=O)NC(=O)[C@H](C)NC(=O)[C@H](C)NC(=O)[C@H](CCC(=O)O)NC(=O)[C@H](CCCCN)NC(=O)[C@H](C)NC(=O)[C@H](CO)NC(=O)[C@H](C)NC(=O)[C@H](CC(C)C)NC(=O)CN)C(C)C)[C@@H](C)CC)[C@@H](C)O)C(C)C)C(C)C)C(=O)N[C@@H](CC(C)C)C(=O)N[C@@H](C)C(=O)N[C@@H](C)C(=O)N[C@@H](CC(C)C)C(=O)N1CCC[C@H]1C(=O)O` (stereo partly drawn) [PEP07968], the “reactivity with IgG of human sera (in words)” value [2] was “least reactivity”, the “immunogenicity classification (in words)” value [3] was “non-immunogenic” and the “number of responding individuals as compared to buffer only” value [3] was 1.

With `CCCCCCCCCCCCCCCC(=O)N[C@@H](CCC(=O)NCCCC[C@H](NC(=O)[C@H](C)NC(=O)[C@H](C)NC(=O)[C@H](CCC(N)=O)NC(=O)CNC(=O)[C@H](CCC(=O)O)NC(=O)[C@H](CC(C)C)NC(=O)[C@H](Cc1ccc(O)cc1)NC(=O)[C@H](CO)NC(=O)[C@H](CO)NC(=O)[C@@H](NC(=O)[C@H](CC(=O)O)NC(=O)[C@H](CO)NC(=O)[C@@H](NC(=O)[C@H](Cc1ccccc1)NC(=O)[C@@H](NC(=O)CNC(=O)[C@H](CCC(=O)O)NC(=O)[C@H](C)NC(=O)[C@@H](N)Cc1cnc[nH]1)[C@@H](C)O)[C@@H](C)O)C(C)C)C(=O)N[C@@H](CCC(=O)O)C(=O)N[C@@H](Cc1ccccc1)C(=O)N[C@H](C(=O)N[C@@H](C)C(=O)N[C@@H](Cc1c[nH]c2ccccc12)C(=O)N[C@@H](CC(C)C)C(=O)N[C@H](C(=O)N[C@@H](CCCNC(=N)N)C(=O)NCC(=O)N[C@@H](CCCNC(=N)N)C(=O)NCC(=O)O)C(C)C)[C@@H](C)CC)C(=O)O` [liraglutide, [N-epsilon-(gamma-Glu(N-alpha-hexadecanoyl))-Lys26,Arg34]-GLP-1-(7-37)-acid] the remaining at 0.5 h, 30 micromolar ([1]; pH 6.8) was 100%, the remaining at 1 h, 30 micromolar ([1]; pH 6.8) was 100% and the “susceptibility to pancreatic enzymes (in words)” value (Pancreatin) was “relatively resistant to pancreatic enzymes”.

In the case of “GSLAEAKEAANAELDSYGVSDFYKRLIDKAKTVEGVEALKDAILAALP [PEP07986]”, the “activity in OGTT DOA when dosed 24 hours before the glucose gavage (in words)” value (“activity in OGTT DOA” below) (NIH/Swiss mice) is reported as “inactive”.

With “GSSLASAKEAANAELDSYGVSDFYKRLIDKAKTVEGVEALKDAILAALP [PEP07554]” the Tm [4] was 58 °C and the “reactivity with IgG of human sera (in words)” value [2] was “least reactivity”.

For “HGEGTFTSDLSKQLEEEAVRLFIEWLKNGGPSSGAPPKSTGGGGSASGSLAEAKEAANAELDSYGVSDFYKRLIDKAKTVEGVEALKDAILAALP [Cmpd 2-6]”, the “Percent glucose lowering compared to vehicle” value (NIH/Swiss mice; Table 17, 25 nmol/Kg, OGTT at 24 hours post drug administration, 30 minutes post gavage) was −22%.

With “HGEGTFTSDLSKQLEEEAVRLFIEWLKQGGPSKEIISGGSLAEAKVLANRELDKYGVSDFYKRLINKAKTVEGVEALKLHILAALP [Cmpd 33]” the “% Glucose Lowering Compared to Vehicle” value (NIH/Swiss mice) was −19%.

With “HGEGTFTSDLSKQLEEEAVRLFIEWLKQGGPSKEIISTGGGGSASGSLAEAKEAANAELDSYGVSDFYKRLIDKAKTVEGVEALKDAILAALP [Cmpd 2-5]” the “Severity score for cytoplasmic vacuolation of renal cortical tubular epithelial cells” value (C57BL6 female mice) was 0.

In the case of “HGEGTFTSDLSKQLEEEAVRLFIEWLKQGGPSKEIISTGGGGSGGGSGGGSGGGSASLAEAKVLANRELDKYGVSDFYKRLINKAKTVEGVEALKLHILAALP [Cmpd 8]”, the “% Glucose Lowering Compared to Vehicle” value (NIH/Swiss mice) is reported as −21%.

For “HGEGTFTSDLSKQMEEEAVRLFIEWLKNGGSLAEAKVLANRELDKYGVSDFYKRLINKAKTVEGVEALKLHILAALP [Cmpd 32]”, the “activity in OGTT DOA” value (NIH/Swiss mice) was “no glucose lowering”.

In the case of “HGEGTFTSDLSKQMEEEAVRLFIEWLKNTGGGGSASLAEAKVLANRELDKYGVSDFYKRLINKAKTVEGVEALKLHILAALP [Cmpd 10]”, the “% Glucose Lowering Compared to Vehicle” value (NIH/Swiss mice) is reported as −22%.

For “PEP07975: DOTA-conjugated PEP07834, SEQ ID NO:460, via Cys14 with maleimido-mono-amide-DOTA; amidated at the C-terminus (ALASAKEAANAELDC(maleimido‑mono‑amide‑DOTA)YGVSDFYKRLIDKAKTVEGVEALKDAILAALP-NH2)”, the Tm [4] was 50 °C.

For “TT: tetanus toxoid (TT, Statens Serum Institut), positive control [reference compound]”, the “number of responding individuals as compared to buffer only” value ([3]; 52 donors) was 49.

B1: HGEGTFTSDLSKQLEEEAVRLFIEWLKNTGGGGSASGSLAEAKEAANAELDSYGVSDFYKRLIDKAKTVEGVEALKDAILAALP (protein)
chain: HGEGTFTSDLSKQLEEEAVRLFIEWLKNTGGGGSASGSLAEAKEAANAELDSYGVSDFYKRLIDKAKTVEGVEALKDAILAALP
In the case of B1, the “in vitro GLP-1 receptor functional activity (in words)” value (GLP-1 receptor) is reported as “active in vitro against the GLP-1 receptor” and the “activity in OGTT DOA” value (NIH/Swiss mice) is reported as “did not display 24 h duration”.
